Publication PMC8446577, “Novel cold-adapted raw-starch digesting α-amylases from Eisenia fetida: Gene cloning, expression, and characterization” (Biotechnology Reports, 2021)

Biological target: T1, rEf-Amy I (Eisenia fetida, UniProt A0A173N065)
T1 construct: gene alpha-amylase; mature enzyme without signal peptide, secreted from Pichia pastoris GS115 (pPICZalphaA, codon-optimised gene), HisTrap purified, 57 kDa by SDS-PAGE; precursor 510 residues; borders from printed domain limits E18-V510
T1 sequence (A0A173N065 18-510): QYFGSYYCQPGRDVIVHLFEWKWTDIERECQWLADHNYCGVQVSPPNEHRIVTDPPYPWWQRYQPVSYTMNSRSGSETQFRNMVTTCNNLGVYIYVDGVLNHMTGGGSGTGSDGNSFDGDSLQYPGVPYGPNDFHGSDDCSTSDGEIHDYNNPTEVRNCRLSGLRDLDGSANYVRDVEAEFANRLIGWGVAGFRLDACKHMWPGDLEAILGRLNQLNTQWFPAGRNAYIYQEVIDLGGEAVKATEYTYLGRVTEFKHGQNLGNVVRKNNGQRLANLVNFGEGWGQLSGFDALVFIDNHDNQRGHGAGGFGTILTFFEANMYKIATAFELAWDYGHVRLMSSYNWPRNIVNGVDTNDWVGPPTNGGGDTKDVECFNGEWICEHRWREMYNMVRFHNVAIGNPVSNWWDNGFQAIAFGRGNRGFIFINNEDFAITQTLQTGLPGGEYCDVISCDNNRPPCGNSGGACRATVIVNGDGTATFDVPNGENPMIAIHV
Test: HPLC (RI detection) of hydrolysis products
Type: biochemical
Details: 5 mM substrate, 50 mM sodium acetate pH 5.5, 37 °C

## OC[C@H]1O[C@H](O[C@H]2[C@H](O)[C@@H](O)[C@@H](O[C@H]3[C@H](O)[C@@H](O)[C@@H](O[C@H]4[C@H](O)[C@@H](O)[C@@H](O[C@H]5[C@H](O)[C@@H](O)C(O)O[C@@H]5CO)O[C@@H]4CO)O[C@@H]3CO)O[C@@H]2CO)[C@H](O)[C@@H](O)[C@@H]1O (some centres unmarked) [maltopentaose]
  HPLC (RI detection) of hydrolysis products: In the case of Ef-Amy I, the major hydrolysis products from Mal5 were Mal and Mal3

## OC[C@H]1O[C@H](O[C@H]2[C@H](O)[C@@H](O)[C@@H](O[C@H]3[C@H](O)[C@@H](O)[C@@H](O[C@H]4[C@H](O)[C@@H](O)C(O)O[C@@H]4CO)O[C@@H]3CO)O[C@@H]2CO)[C@H](O)[C@@H](O)[C@@H]1O (some centres unmarked) [maltotetraose]
  HPLC (RI detection) of hydrolysis products: from Mal4 was Mal (Fig. 5B)
